Test system: anesthetized dogs
Assay: Cardiovascular and respiratory function in anesthetized dogs (safety pharmacology)
Assay type: in vivo
Conditions: anesthetized Beagle dogs; three ascending doses 400, 800, and 1,200 mg/kg/day; infusion through the jugular vein; compared to the vehicle control group
Method: The pharmacological properties of 3-(3,4-dimethoxy-phenyl)-3-(1-oxo-1,3-dihydro-isoindol-2-yl)-propionamide, including activity comparisons with thalidomide, are characterized in in vitro studies. Studies examine the effects of 3-(3,4-dimethoxy-phenyl)-3-(1-oxo-1,3-dihydro-isoindol-2-yl)-propionamide on the production of various cytokines. In addition, a safety pharmacology study of 3-(3,4-dimethoxy-phenyl)-3-(1-oxo-1,3-dihydro-isoindol-2-yl)-propionamide is conducted in dogs and the effects of the compound on ECG parameters are examined further as part of three repeat-dose toxicity studies in primates.
The effects of 3-(3,4-dimethoxy-phenyl)-3-(l-oxo-1,3-dihydro-isoindol-2-yl)-propionamide on cardiovascular and respiratory function are investigated in anesthetized dogs. Two groups of Beagle dogs (2/sex/group) are used. One group receives three doses of vehicle only and the other receives three ascending doses of 3-(3,4-dimethoxy-phenyl)-3-(1-oxo-1,3-dihydro-isoindol-2-yl)-propionamide (400, 800, and 1,200 mg/kg/day). In all cases, doses of 3-(3,4-dimethoxy-phenyl)-3-(1-oxo-1,3-dihydro-isoindol-2-yl)-propionamide or vehicle are successively administered via infusion through the jugular vein separated by intervals of at least 30 minutes. […]

## COc1ccc(C(CC(N)=O)N2Cc3ccccc3C2=O)cc1OC (stereo not shown) [3-(3,4-dimethoxy-phenyl)-3-(1-oxo-1,3-dihydro-isoindol-2-yl)-propionamide]
  cardiovascular and respiratory changes: minimal
